# Experimental data taken from patent US20050164370A1 (priority 2003, published 2005).
# Like-named read-outs stand apart in the source and are kept apart here.
# Key:
# Assay type in all cases: cell-based, yeast
# [1] = tested on: transformed cells TM182-AHK2-CYC1IPT5; assay: Liquid culture of transformed cell TM182-AHK2-CYC1IPT5 with examinee substance, absorbance; settings: Table 4, TM182-AHK2-CYC1-IPT5, 1 μL of 200 ppm DMSO solution per 100 μL, DOHLU+Glu, 30° C. for 24 hours
# Method: (§1) The thus obtained culture solutions were diluted with DOHLU+Glu culture medium so that OD600 became 0.200, and then the diluted ones were further diluted with DOHLU+Glu culture medium at a dilution rate of 1/200 to obtain diluted pre-cultured solutions.
# (§2) A 96-well assay plate was prepared by filling each well with 1 μL of a DMSO solution of an examinee substance (Abscisic acid or 6-Benzyl aminopurine). In this regard, it is to be noted that the DMSO solution of a examinee substance was prepared so that the concentration thereof became 200 ppm. Simultaneously, an assay plate was prepared by filling each well with 1 μL of DMSO as a blank section.
# (§3) Each of the diluted pre-cultured solutions was added in a volume of 100 μL per each well of both of the assay plates, and was cultured at 30° C. for 24 hours. After incubation, the turbidity of each well was measured using a plate reader. The absorbance (OD600) of each of the culture solutions of the transformed cells containing the examinee substance was shown in Table 4. […] Further, the growth speeds of the transformed cells TM182-CRE1-ADHIPT4, TM182-AHK2-CYC1IPT4, TM182-AHK2-CYC1IPT5 and TM182-AHK2-ADHIPT5 in the culture medium to which 6-Benzyl aminopurine was added were faster than those in the culture medium to which only DMSO was added.
# [2] = tested on: transformed cells TM182-CYC1-ADHIPT4; settings: DOHLU+Glu, 30° C. for 24 hours
# Method: (§4) Each of the transformed cells TM182-CYC1-CYC1IPT4, TM182-CYC1-ADHIPT4, TM182-CYC1-CYC1IPT5, TM182-CYC1-ADHIPT5, TM182-CRE1-CYC1IPT4, and TM182-CRE1-ADHIPT5 obtained in Example 16 was inoculated in 200 mL of DOHLU+Gal culture medium, and was pre-cultured at 30° C. for 36 hours. The thus obtained culture solutions were diluted with DOHLU+Glu culture medium so that OD600 became 0.200, and then the diluted ones were further diluted with DOHLU+Glu culture medium at a dilution rate of 1/200 to obtain diluted pre-cultured solutions.
# as §2
# (§5) Each of the diluted pre-cultured solutions was added in a volume of 100 μL per each well of both of the assay plates, and was cultured at 30° C. for 24 hours. After incubation, the turbidity of each well was measured using a plate reader.
# as §4, with “TM182-CRE1-ADHIPT4, TM182-AHK2-CYC1IPT4, TM182-AHK2-CYC1IPT5” for “TM182-CRE1-CYC1IPT4,”, “TM182-AHK2-ADHIPT5” for “TM182-CRE1-ADHIPT5”
# as §5
# [3] = tested on: transformed cells TM182-CYC1-CYC1IPT4; settings: DOHLU+Glu, 30° C. for 24 hours
# Method: as §4, §2, §5
# as §4, with “TM182-CRE1-ADHIPT4, TM182-AHK2-CYC1IPT4, TM182-AHK2-CYC1IPT5” for “TM182-CRE1-CYC1IPT4,”, “TM182-AHK2-ADHIPT5” for “TM182-CRE1-ADHIPT5”
# as §5
# [4] = tested on: transformed cells TM182-AHK2-CYC1IPT4; assay: Liquid culture of transformed cell TM182-AHK2-CYC1IPT4 with examinee substance, absorbance; settings: Table 4, TM182-AHK2-CYC1-IPT4, 1 μL of 200 ppm DMSO solution per 100 μL, DOHLU+Glu, 30° C. for 24 hours
# Method: as §1, §2, §3
# [5] = tested on: transformed cells TM182-CYC1-ADHIPT5; assay: Liquid culture of transformed cell TM182-CYC1-ADHIPT5 with examinee substance, absorbance; settings: DOHLU+Glu, 30° C. for 24 hours
# Method: as §1, §2
# as §3, with “3.” for “4.”, “TM182-CRE1-CYC1IPT4” for “TM182-CRE1-ADHIPT4, TM182-AHK2-CYC1IPT4, TM182-AHK2-CYC1IPT5”, “TM182-CRE1-ADHIPT5” for “TM182-AHK2-ADHIPT5”
# as §3
# [6] = tested on: transformed cells TM182-CRE1-ADHIPT4; assay: Liquid culture of transformed cell TM182-CRE1-ADHIPT4 with examinee substance, absorbance; settings: Table 4, TM182-CRE1-ADH-IPT4, 1 μL of 200 ppm DMSO solution per 100 μL, DOHLU+Glu, 30° C. for 24 hours
# Method: as §1, §2, §3
# [7] = tested on: transformed cells TM182-AHK2-ADHIPT5; assay: Liquid culture of transformed cell TM182-AHK2-ADHIPT5 with examinee substance, absorbance; settings: Table 4, TM182-AHK2-ADH-IPT5, 1 μL of 200 ppm DMSO solution per 100 μL, DOHLU+Glu, 30° C. for 24 hours
# Method: as §1, §2, §3
# [8] = Table 3, TM182-CYC1-ADH-IPT4, 1 μL of 200 ppm DMSO solution per 100 μL
# [9] = Table 4, TM182-CYC1-ADH-IPT4, 1 μL of 200 ppm DMSO solution per 100 μL
# [10] = Table 3, TM182-CYC1-CYC1-IPT4, 1 μL of 200 ppm DMSO solution per 100 μL
# [11] = Table 4, TM182-CYC1-CYC1-IPT4, 1 μL of 200 ppm DMSO solution per 100 μL
# [12] = Table 3, TM182-CYC1-ADH-IPT5, 1 μL of 200 ppm DMSO solution per 100 μL
# [13] = Table 4, TM182-CYC1-ADH-IPT5, 1 μL of 200 ppm DMSO solution per 100 μL
Compound,absorbance (OD600) of the culture solution [1],"absorbance (OD600) of the culture solution [2, 8]","absorbance (OD600) of the culture solution [2, 9]","absorbance (OD600) of the culture solution [3, 10]","absorbance (OD600) of the culture solution [3, 11]",absorbance (OD600) of the culture solution [4],"absorbance (OD600) of the culture solution [5, 12]","absorbance (OD600) of the culture solution [5, 13]",absorbance (OD600) of the culture solution [6],absorbance (OD600) of the culture solution [7]
"CC1=CC(=O)CC(C)(C)[C@@]1(O)/C=C/C(C)=C\C(=O)O [Compound A, Abscisic acid]",0.069,0.040,0.035,0.042,0.035,0.194,0.043,0.035,0.045,0.297
"c1ccc(CNc2ncnc3nc[nH]c23)cc1 [Compound B, 6-Benzyl aminopurine]",0.430,0.041,0.034,0.042,0.034,0.339,0.043,0.035,0.058,0.427
